In PMC5614603, “Structural insights into substrate selectivity of ribosomal RNA methyltransferase RlmCD” (PLoS ONE, 2017):

How the values were obtained:
[1] = target: T1, RlmCDs (Streptococcus pneumoniae, UniProt Q97R12); test: in-vitro methyltransferase assay, 3H counting on RNA; format: biochemical; conditions: labelled compound (3H-SAM); 18-mer rRNA-h35, 3 mM MgCl2, pH 8.0, 37 °C, 2 h
T1 construct: gene SP_1029; core region residues 1-454; 8xHis-SUMO tag cut by ULP1; E. coli BL21 (Gold)

[2] = target: RlmCDs E443Q (Streptococcus pneumoniae, UniProt Q97R12 1-454, E443Q); test: crystal structure (2.85 A); SAH (SAM added); only the 5-bp stem modelled, loop not visible; Crystallization: 8 mg/ml protein, protein:SAM:RNA 1:2:1.2, 0.1 M ammonium sulfate, 0.01 M MgCl2, 0.05 M MES, 20% w/v PEG8000, pH 5.6; protein storage buffer 20; conditions: protein: recombinant; tags: N-terminal 8xHis-SUMO, cleaved with ULP1; hairpin

Row | Molecule | in-vitro methyltransferase assay, 3H counting on RNA [1] | binding result [2]
1 | C[S+](CC[C@H](N)C(=O)O)C[C@H]1O[C@@H](n2cnc3c(N)ncnc32)[C@H](O)[C@@H]1O (some centres unmarked) [SAM] | both full-length RlmCD and its shorter construct RlmCDs exhibit strong MTase activity | 
2 | GGCACGUUGAAAAGUGCC (structured_RNA, m5U at position 8 (U747)) [m5U747 rRNA-h35 (18-mer, 23S rRNA helix 35)] |  | binds
